# Experiments:
# [1] = test system: crabgrass; assay: Test A pre-/postemergence greenhouse test; assay type: in vivo, Digitaria sanguinalis; details: for Plant response rating, Crabgrass, Large: 0 to 100 scale where 0 is no effect and 100 is complete control; for Crabgrass, Large plant response rating: 0 to 100 scale
# Method in brief: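 Test compounds in non-phytotoxic solvent with surfactant were applied as a preemergence soil spray to seeded loam/sand pots and, concurrently, postemergence to plants at 2–10 cm, one- to two-leaf stage. About ten days in greenhouse, then injury visually rated against untreated controls.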
# [2] = test system: southern sandbur; assay: Test F preemergence test; assay type: in vivo, Cenchrus echinatus; details: scale 0 to 100
# Method in brief: (§1)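 Visual ratings relative to controls, taken after 14 to 21 days in a greenhouse. Test chemicals, formulated in a surfactant-containing non-phytotoxic solvent mixture, were applied preemergence to sown seeds or postemergence to sugarcane plants.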
# [3] = test system: green foxtail; assay: Test F preemergence test; assay type: in vivo, Setaria viridis; details: scale 0 to 100
# Method in brief: as §1
# [4] = test system: Surinam grass; assay: Test F preemergence test; assay type: in vivo, Brachiaria decumbens; details: scale 0 to 100
# Method in brief: as §1
# [5] = test system: goosegrass; assay: Test F preemergence test; assay type: in vivo, Eleusine indica; details: scale 0 to 100
# Method in brief: as §1
# [6] = test system: Italian ryegrass; assay: Test F preemergence test; assay type: in vivo, Lolium multiflorum; details: scale 0 to 100
# Method in brief: as §1
# [7] = test system: large crabgrass; assay: Test F preemergence test; assay type: in vivo, Digitaria sanguinalis; details: scale 0 to 100
# Method in brief: as §1
# [8] = test system: downy brome; assay: Test C pre-/postemergence test; assay type: in vivo, Bromus tectorum; details: preemergence, scale 0 (no effect) to 100 (complete control)
# Method in brief: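 Test chemicals were formulated with surfactant in a non-phytotoxic solvent and sprayed both on freshly planted seeds (preemergence) and on 1- to 4-leaf plants of 2–18 cm (postemergence). Flooded-paddy pots received compound directly into 3 cm of standing water, maintained for the test.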
# [9] = test system: field bindweed; assay: Test F preemergence test; assay type: in vivo, Convolvulus arvensis; details: scale 0 to 100
# Method in brief: as §1
# [10] = test system: itchgrass; assay: Test F preemergence test; assay type: in vivo, Rottboellia cochinchinensis; details: scale 0 to 100
# Method in brief: as §1
# [11] = test system: catchweed bedstraw; assay: Test C pre-/postemergence test; assay type: in vivo, Galium aparine
# Description: Seeds of plant species selected from blackgrass (Alopecurus myosuroides), downy brome (Bromus tectorum), green foxtail (Setaria viridis), Italian ryegrass (Lolium multiflorum), wheat (Triticum aestivum), wild oat (Avena fatua), catchweed bedstraw (Galium aparine), Russian thistle (Salsola kali), […] (Cynodon dactylon), Surinam grass (Brachiaria decumbens), cocklebur (Xanthium strumarium), corn (Zea mays), crabgrass (Digitaria sanguinalis), woolly cupgrass (Eriochloa villosa), giant foxtail (Setaria faberii), Goosegrass (Eleusin indica), johnsongrass (Sorghum halepense), kochia (Kochia scoparia), lambsquarters (Chenopodium album), morningglory (Ipomoea coccinea), eastern black nightshade (Solanum ptycanthum), yellow nutsedge (Cyperus esculentus), pigweed (Amaranthus retroflexus), common ragweed (Ambrosia elation), soybean (Glycine max), common (oilseed) sunflower (Helianthus annuus), and velvetleaf (Abutilon theophrasti) were planted and treated preemergence with test chemicals formulated in a non-phytotoxic solvent mixture which included a surfactant. At the same time, plants selected from these crop and weed species and also winter barley (Hordeum vulgare), canarygrass (Phalaris minor), and chickweed (Stellaria media) were treated with postemergence applications of some of the test chemicals formulated in the same manner. Plants ranged in height from 2 to 18 cm (1- to 4-leaf stage) for postemergence treatments. […] At time of treatment, test pots were flooded to 3 cm above the soil surface, treated by application of test compounds directly to the paddy water, and then maintained at that water depth for the duration of the test. […] A dash (-) response means no test result.
# [12] = test system: johnsongrass; assay: Test F preemergence test; assay type: in vivo, Sorghum halepense; details: scale 0 to 100
# Method in brief: as §1
# [13] = test system: common ragweed; assay: Test F preemergence test; assay type: in vivo, Ambrosia elation; details: scale 0 to 100
# Method in brief: as §1
structure (smiles),measurement,setting,value
Cn1nc(C(F)(F)F)c(C[S+]([O-])c2ccc(Cl)c[n+]2[O-])c1OCC(F)F (centres unmarked) [Compound 85],"Plant response rating, Crabgrass, Large","[1]; Postemergence, 125 g ai/ha",70
same,"Crabgrass, Large plant response rating","[1]; Postemergence, 500 g ai/ha, 0 is no effect, 100 is complete control",90
same,"Crabgrass, Large plant response rating","[1]; Preemergence, 125 g ai/ha, 0 no effect, 100 complete control",80
same,"Plant response rating, Crabgrass, Large","[1]; Preemergence, 500 g ai/ha",100
same,"Plant response rating, Sandbur","[2]; 16 g ai/ha, preemergence",10
same,Sandbur plant response rating,"[2]; 125 g ai/ha, preemergence",100
same,"Plant response rating, Sandbur","[2]; Preemergence, 62 g ai/ha",100
same,"Plant response rating, Sandbur","[2]; Preemergence, 31 g ai/ha",70
same,"Plant response rating, Foxtail, Green","[3]; 16 g ai/ha, preemergence",35
same,"Foxtail, Green plant response rating","[3]; 125 g ai/ha, preemergence",95
same,"Plant response rating, Foxtail, Green","[3]; Preemergence, 62 g ai/ha",90
same,"Plant response rating, Foxtail, Green","[3]; Preemergence, 31 g ai/ha",70
same,"Plant response rating, Surinam Grass","[4]; 16 g ai/ha, preemergence",60
same,Surinam Grass plant response rating,"[4]; 125 g ai/ha, preemergence",100
same,"Plant response rating, Surinam Grass","[4]; Preemergence, 62 g ai/ha",100
same,"Plant response rating, Surinam Grass","[4]; Preemergence, 31 g ai/ha",100
same,"Plant response rating, Goosegrass","[5]; 16 g ai/ha, preemergence",35
same,Goosegrass plant response rating,"[5]; 125 g ai/ha, preemergence",100
same,"Plant response rating, Goosegrass","[5]; Preemergence, 62 g ai/ha",80
same,"Plant response rating, Goosegrass","[5]; Preemergence, 31 g ai/ha",65
same,"Plant response rating, Ryegrass, Italian","[6]; 16 g ai/ha, preemergence",65
same,"Ryegrass, Italian plant response rating","[6]; 125 g ai/ha, preemergence",100
same,"Plant response rating, Ryegrass, Italian","[6]; Preemergence, 62 g ai/ha",100
same,"Plant response rating, Ryegrass, Italian","[6]; Preemergence, 31 g ai/ha",65
same,"Plant response rating, Crabgrass, Large","[7]; 16 g ai/ha, preemergence",60
same,"Crabgrass, Large plant response rating","[7]; 125 g ai/ha, preemergence",90
same,"Plant response rating, Crabgrass, Large","[7]; Preemergence, 62 g ai/ha",90
same,"Plant response rating, Crabgrass, Large","[7]; Preemergence, 31 g ai/ha",70
same,"Bromegrass, Downy plant response rating",[8]; 125 g ai/ha,70
same,"Bromegrass, Downy plant response rating",[8]; 250 g ai/ha,100
same,"Plant response rating, Field Bindweed","[9]; 16 g ai/ha, preemergence",0
same,Field Bindweed plant response rating,"[9]; 125 g ai/ha, preemergence",35
same,"Plant response rating, Field Bindweed","[9]; Preemergence, 62 g ai/ha",20
same,"Plant response rating, Field Bindweed","[9]; Preemergence, 31 g ai/ha",0
same,"Plant response rating, Itchgrass","[10]; 16 g ai/ha, preemergence",25
same,Itchgrass plant response rating,"[10]; 125 g ai/ha, preemergence",90
same,"Plant response rating, Itchgrass","[10]; Preemergence, 62 g ai/ha",70
same,"Plant response rating, Itchgrass","[10]; Preemergence, 31 g ai/ha",70
same,Galium plant response rating,"[11]; 62 g ai/ha, Preemergence, scale 0 to 100",100
same,Galium plant response rating,"[11]; 125 g ai/ha, preemergence, scale 0 (no effect) to 100 (complete control)",100
same,"Plant response rating, Galium","[11]; Preemergence, 31 g ai/ha, scale 0 to 100 (0 no effect, 100 complete control)",98
same,Galium plant response rating,"[11]; preemergence, 250 g ai/ha, scale 0 (no effect) to 100 (complete control)",100
same,"Plant response rating, Johnsongrass","[12]; 16 g ai/ha, preemergence",40
same,Johnsongrass plant response rating,"[12]; 125 g ai/ha, preemergence",98
same,"Plant response rating, Johnsongrass","[12]; Preemergence, 62 g ai/ha",90
same,"Plant response rating, Johnsongrass","[12]; Preemergence, 31 g ai/ha",75
same,"Plant response rating, Ragweed","[13]; 16 g ai/ha, preemergence",0
same,Ragweed plant response rating,"[13]; 125 g ai/ha, preemergence",80
same,"Plant response rating, Ragweed","[13]; Preemergence, 62 g ai/ha",80
same,"Plant response rating, Ragweed","[13]; Preemergence, 31 g ai/ha",20
